Key:
[1] = test system: human neutrophils; assay: fMLF-induced neutrophil chemotaxis (ChemoTx chambers); type: cell-based; conditions: 1 h, 1 nM fMLF, 60 min migration
Procedure: Human neutrophils were suspended in HBSS^+ containing 2% (v/v) heat-inactivated fetal bovine serum (2 × 10^6 cells/mL), and effects of the compounds on fMLF-induced chemotaxis was analyzed in 96-well ChemoTx chemotaxis chambers (Neuroprobe, Gaithersburg, MD, USA). In brief, neutrophils were preincubated with the indicated concentrations of the test compounds or DMSO for 20 min at room temperature and added to the upper wells of the ChemoTx chemotaxis chambers. The lower wells were loaded with 30 µL of HBSS^+ containing 2% (v/v) fetal bovine serum and the indicated concentrations of test sample plus 1 nM fMLF, DMSO (negative control), or 1 nM fMLF as a positive control. Neutrophils were added to the upper wells and allowed to migrate through the 5.0-µm pore polycarbonate membrane filter for 60 min at 37 °C and 5% CO2. The number of migrated cells was determined by measuring ATP in lysates of transmigrated cells using a luminescence-based assay (CellTiter-Glo; Promega, Madison, WI, USA), and luminescence measurements were converted to absolute cell numbers by comparison of the values with standard curves obtained with known numbers of neutrophils. Curve fitting (at least eight to nine points) and calculation of median effective concentration values (IC50) were performed by nonlinear regression analysis of the dose-response curves generated using Prism 5.

[2] = molecular target: T1, FPR2 (Homo sapiens, UniProt P25090); assay: Inhibition of WKYMVM-induced [Ca2+]i flux in FPR2-HL60 cells; type: cell-based; conditions: 10 min preincubation, 5 nM WKYMVM; N.A. = no activity at < 50 µM; read-out: FPR1/FPR2 Agonist-Induced Δ[Ca^2+]i FPR2-HL60 IC50
T1 construct: expressed in transfected cells
T1 sequence (P25090 1-351): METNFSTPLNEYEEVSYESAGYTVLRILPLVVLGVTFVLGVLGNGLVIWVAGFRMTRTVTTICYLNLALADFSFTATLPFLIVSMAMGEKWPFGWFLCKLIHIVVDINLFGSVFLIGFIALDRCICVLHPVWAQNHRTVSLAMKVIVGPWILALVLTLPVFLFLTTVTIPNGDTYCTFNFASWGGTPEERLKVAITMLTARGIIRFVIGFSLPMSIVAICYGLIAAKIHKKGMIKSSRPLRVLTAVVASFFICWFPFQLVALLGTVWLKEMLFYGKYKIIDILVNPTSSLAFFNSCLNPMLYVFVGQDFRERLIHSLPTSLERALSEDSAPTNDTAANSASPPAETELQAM
Procedure: Since these compounds elevated neutrophil [Ca^2+]i, and cytosolic Ca^2+ flux is a key component of neutrophil activation, we evaluated if they could alter neutrophil activation by FPR1 or FPR2 agonists. Neutrophils and FPR-transfected HL60 cells were preincubated for 10 min with crown ether compounds, and [Ca^2+]i flux was stimulated with either an FPR1 agonist (fMLF for human neutrophils and FPR1-HL60 cells) or an FPR2 agonist (WKYMVM for FPR2-HL60 cells).
Human promyelocytic leukemia HL60 cells stably transfected with FPR1 (FPR1-HL60 cells) or FPR2 (FPR2-HL60 cells) (kind gifts from Dr. Marie-Josephe Rabiet, INSERM, Grenoble, France) were cultured in RPMI 1640 medium supplemented with 10% heat-inactivated fetal calf serum, 10 mM HEPES, 100 μg/mL streptomycin, 100 U/mL penicillin, and G418 (1 mg/mL). Although stable cell lines are cultured under G418 selection pressure, G418 may affect some assays, so it was removed in the last round of culture before assays were performed.
Changes in neutrophil intracellular Ca^2+ concentrations ([Ca^2+]i) were measured with a FlexStation 3 scanning fluorometer (Molecular Devices, Sunnyvale, CA, USA). Briefly, human neutrophils were suspended in HBSS^−, loaded with Fluo-4AM at a final concentration of 1.25 μg/mL, and incubated for 30 min in the dark at 37 °C. After dye loading, the cells were washed with HBSS^−, resuspended in HBSS^+, separated into aliquots, and loaded into the wells of flat-bottom, half-area well black microtiter plates (2 × 10^5 cells/well). To assess the direct effects of test compounds on Ca^2+ flux, the compounds were added to the wells (final concentration of DMSO was 1%), and changes in fluorescence were monitored (λex = 485 nm, λem = 538 nm) every 5 s for 240 s at room temperature after addition of the test compound. To evaluate inhibitory effects of the compounds on FPR1/FPR2-dependent Ca^2+ flux, the compounds were added to the wells (final concentration of DMSO was 1%) with cells (human neutrophils or FPR1/FPR2 HL60 cells). The samples were preincubated for 10 min, followed by addition of 5 nM fMLF (for human neutrophils or FPR1-HL60 cells) or 5 nM WKYMVM (for FPR2-HL60 cells). The maximum change in fluorescence, expressed in arbitrary units over baseline, was used to determine the agonist response. Responses were normalized to the response induced by 5 nM fMLF or 5 nM WKYMVM, which were assigned as 100%. Curve fitting (at least five or six points) and calculation of median effective concentration values (EC50 or IC50) were performed by nonlinear regression analysis of the dose–response curves generated using Prism 7 (GraphPad Software, Inc., San Diego, CA, USA). Efficacy was determined by comparing individual responses activated by the test compounds to that induced by a positive control (5 nM fMLF), which was assigned a value of 100%.

Structure (SMILES) | IC50 [1] | melting point | IC50 [2]
O=C(CC12CC3CC(CC(C3)C1)C2)N1CCOCCOCCN(C(=O)CC23CC4CC(CC(C4)C2)C3)CCOCC1 [Compound 15, N,N’-bis[2-(1-adamantyl)acetyl]-4,10-diaza-15-crown-5] | 5.7 ± 0.2 µM | 72 to 76 °C | 7.2 ± 1.7 µM
O=C(N1CCOCCOCCN(C(=O)C23CC4CC(CC(C4)C2)C3)CCOCC1)C12CC3CC(CC(C3)C1)C2 [Compound 13, N,N’-bis[1-oxo-1-(1-adamantyl)methyl]-4,10-diaza-15-crown-5] | 5.8 ± 1.4 µM | – | 32.6 ± 4.5 µM
O=C(N1CCOCCOCCOCCN(C(=O)C23CC4CC(CC(C4)C2)C3)CCOCC1)C12CC3CC(CC(C3)C1)C2 [Compound 14, N,N’-bis[1-oxo-1-(1-adamantyl)methyl]-4,10-diaza-18-crown-6] | 6.1 ± 2.1 µM | – | 8.3 ± 2.3 µM
O=C(CC12CC3CC(CC(C3)C1)C2)N1CCOCCOCCN(C(=O)CC23CC4CC(CC(C4)C2)C3)CCOCCOCC1 [Compound 17, N,N’-bis[2-(1-adamantyl)acetyl]-4,13-diaza-18-crown-6] | 5.2 ± 1.7 µM | – | 7.6 ± 1.9 µM

— PMC8069214, “Synthesis, Biological Evaluation, and Molecular Modeling of Aza-Crown Ethers” (Molecules, 2021)
